Like-named read-outs stand apart in the source and are kept apart here. Values belong to the molecule of their own block, whether it stands above or below them.
Legend:
human PBMC cells = test: cytokine/chemokine gene expression (TaqMan) in human PBMC; conditions: 4 h; for fold induction at 1 µM / fold induction at 0.01 µM / fold induction at 0.03 µM / fold induction at 0.1 µM: Homo sapiens, PBMC
NFκB = NFκB luciferase reporter gene assay in HeLa-NFκB luciferase reporter cell line; assay type: cell-based; conditions: 16 h; for EC50: 37 °C, luciferase/CTG normalized, read-out: NFκB-luc HeLa cells EC50
Method: The PKC activator compounds were evaluated for their effect on NFκB expression using a luciferase reporter gene expression system. (The indicators “K-101,” “K101” and “K-101A” may be used interchangeably in this disclosure and appended figures).
A HeLa-NFκB luciferase reporter cell line (Wuxi Biology) was used to assess a group of PKC activator compounds for their ability to activate NFκB-driven transcription. Two sets of cells at 20000 cells/well were plated, grown overnight, and then treated for 16 h at 37 °C with DMSO, 6 doses of each compound, or TNF-α (final concentration of 10 ng/mL, positive control) in triplicates. One set of cells was assayed for luciferase activity (Promega, Cat #E1500) and the other set was assayed to determine the number of viable cells (for cell number normalization) using CellTiter-Glo (CTG) kit (Promega, Cat #G7570) according to manufacture's procedures. Normalized data (luciferase value/CTG value) were analyzed using GraphPad Prism5 to calculate EC50 for each compound (see Table 3).

[1] = 0.03 μM, vs DMSO, 240 min, 0.03 µM
[2] = 0.10 μM, vs DMSO, 240 min, 0.1 µM

- IL-6 induction compared to DMSO control (human PBMC cells): > 400 fold
Molecule: CCOCc1nc2c(N)nc3ccccc3c2n1CC(C)(C)O [Resiquimod, reference compound]
- IL-12p40 expression (in words) (human PBMC cells): highly induced
- ISG15 expression (in words) (human PBMC cells): highly induced
- MX1 expression (in words) (human PBMC cells): highly induced
- OAS1 expression (in words) (human PBMC cells): highly induced
- fold induction at 1 µM (human PBMC cells; read-out: CCL2 gene relative expression): 3.73
- fold induction at 1 µM (human PBMC cells; read-out: GM-CSF gene relative expression): 8.79
- fold induction at 1 µM (human PBMC cells; read-out: IFN-α gene relative expression): 1.47
- fold induction at 1 µM (human PBMC cells; read-out: IFNγ gene relative expression): 1.28
- fold induction at 1 µM (human PBMC cells; read-out: IL-1β gene relative expression): 102
- fold induction at 1 µM (human PBMC cells; read-out: IL-2 gene relative expression): 1.21
- fold induction at 1 µM (human PBMC cells; read-out: IL-6 gene relative expression): 487
- fold induction at 1 µM (human PBMC cells; read-out: IL-8 gene relative expression): 9.87
- fold induction at 1 µM (human PBMC cells; read-out: IL-10 gene relative expression): 5.65
- fold induction at 1 µM (human PBMC cells; read-out: IL-12p40 gene relative expression): 786
- fold induction at 1 µM (human PBMC cells; read-out: IL-12p70 gene relative expression): 2.48
- fold induction at 1 µM (human PBMC cells; read-out: IL-13 gene relative expression): 3.52
- fold induction at 1 µM (human PBMC cells; read-out: IL-18 gene relative expression): 1.33
- fold induction at 1 µM (human PBMC cells; read-out: ISG15 gene relative expression): 14.8
- fold induction at 1 µM (human PBMC cells; read-out: MIP1a (CCL3) gene relative expression): 47.7
- fold induction at 1 µM (human PBMC cells; read-out: MX1 gene relative expression): 17
- fold induction at 1 µM (human PBMC cells; read-out: OAS1 gene relative expression): 12.7
- fold induction at 1 µM (human PBMC cells; read-out: TNF-α gene relative expression): 7.38

Molecule: CC1=C[C@H]2[C@@]3(O)[C@H](C)C[C@]4(OC(=O)[C@@H](N)Cc5ccccc5)[C@H]([C@@H]3C=C(CO)C[C@]2(O)C1=O)C4(C)C
- EC50 (NFκB; Homo sapiens, HeLa): 200 to 600 nM

Molecule: CC1=C[C@H]2[C@@]3(O)[C@H](C)C[C@]4(OC(=O)C(N)CCCCCCc5ccccc5)[C@H]([C@@H]3C=C(CO)C[C@]2(O)C1=O)C4(C)C (stereo partly drawn)
- EC50 (NFκB): 1 to 10 nM
- IL-2 gene relative expression (human PBMC cells; [1]): 3.59
- IL-13 gene relative expression (human PBMC cells; [1]): 5.87
- IL-18 gene relative expression (human PBMC cells; [1]): 0.19
- TNF-α gene relative expression (human PBMC cells; [1]): 2.91
- CCL2 gene relative expression (human PBMC cells; [2]): 0.40
- GM-CSF gene relative expression (human PBMC cells; [2]): 21.01
- IFNγ gene relative expression (human PBMC cells; [2]): 11.33
- IL-6 gene relative expression (human PBMC cells; [2]): 6.15
- IL-10 gene relative expression (human PBMC cells; [2]): 0.12
- IL-13 gene relative expression (human PBMC cells; [2]): 121.59
- MIP1a (CCL3) gene relative expression (human PBMC cells; [2]): 4.95
- fold induction at 0.01 µM (human PBMC cells; read-out: CCL2 gene relative expression, 0.01 μM, 4 h, vs DMSO): 1.81
- fold induction at 0.03 µM (human PBMC cells; read-out: CCL2 gene relative expression, 0.03 μM, 4 h, vs DMSO): 6.53
- fold induction at 0.01 µM (human PBMC cells; read-out: GM-CSF gene relative expression, 0.01 μM, 4 h, vs DMSO): 1
- fold induction at 0.03 µM (human PBMC cells; read-out: GM-CSF gene relative expression, 0.03 μM, 4 h, vs DMSO): 1.88
- fold induction at 0.01 µM (human PBMC cells; read-out: IFN-α gene relative expression, 0.01 μM, 4 h, vs DMSO): 0.73
- fold induction at 0.03 µM (human PBMC cells; read-out: IFN-α gene relative expression, 0.03 μM, 4 h, vs DMSO): 1.21
- fold induction at 0.1 µM (human PBMC cells; read-out: IFN-α gene relative expression, 0.10 μM, 4 h, vs DMSO): 0.8
- fold induction at 0.01 µM (human PBMC cells; read-out: IFNγ gene relative expression, 0.01 μM, 4 h, vs DMSO): 1.46
- fold induction at 0.03 µM (human PBMC cells; read-out: IFNγ gene relative expression, 0.03 μM, 4 h, vs DMSO): 1.49
- fold induction at 0.01 µM (human PBMC cells; read-out: IL-1β gene relative expression, 0.01 μM, 4 h, vs DMSO): 0.38
- fold induction at 0.03 µM (human PBMC cells; read-out: IL-1β gene relative expression, 0.03 μM, 4 h, vs DMSO): 0.94
- fold induction at 0.1 µM (human PBMC cells; read-out: IL-1β gene relative expression, 0.10 μM, 4 h, vs DMSO): 3
- fold induction at 0.01 µM (human PBMC cells; read-out: IL-2 gene relative expression, 0.01 μM, 4 h, vs DMSO): 1.32
- fold induction at 0.1 µM (human PBMC cells; read-out: IL-2 gene relative expression, 0.10 μM, 4 h, vs DMSO): 4.98
- fold induction at 0.03 µM (human PBMC cells; read-out: IL-4 gene relative expression, 0.03 μM, 4 h, vs DMSO): 1.19
- fold induction at 0.1 µM (human PBMC cells; read-out: IL-4 gene relative expression, 0.10 μM, 4 h, vs DMSO): 2.78
- fold induction at 0.01 µM (human PBMC cells; read-out: IL-6 gene relative expression, 0.01 μM, 4 h, vs DMSO): 0.57
- fold induction at 0.03 µM (human PBMC cells; read-out: IL-6 gene relative expression, 0.03 μM, 4 h, vs DMSO): 1.23
- fold induction at 0.01 µM (human PBMC cells; read-out: IL-8 gene relative expression, 0.01 μM, 4 h, vs DMSO): 0.44
- fold induction at 0.03 µM (human PBMC cells; read-out: IL-8 gene relative expression, 0.03 μM, 4 h, vs DMSO): 0.66
- fold induction at 0.1 µM (human PBMC cells; read-out: IL-8 gene relative expression, 0.10 μM, 4 h, vs DMSO): 0.44
- fold induction at 0.01 µM (human PBMC cells; read-out: IL-10 gene relative expression, 0.01 μM, 4 h, vs DMSO): 1.59
- fold induction at 0.03 µM (human PBMC cells; read-out: IL-10 gene relative expression, 0.03 μM, 4 h, vs DMSO): 0.86
- fold induction at 0.01 µM (human PBMC cells; read-out: IL-12p40 gene relative expression, 0.01 μM, 4 h, vs DMSO): 0.34
- fold induction at 0.03 µM (human PBMC cells; read-out: IL-12p40 gene relative expression, 0.03 μM, 4 h, vs DMSO): 0.38
- fold induction at 0.01 µM (human PBMC cells; read-out: IL-12p70 gene relative expression, 0.01 μM, 4 h, vs DMSO): 1.05
- fold induction at 0.03 µM (human PBMC cells; read-out: IL-12p70 gene relative expression, 0.03 μM, 4 h, vs DMSO): 0.96
- fold induction at 0.1 µM (human PBMC cells; read-out: IL-12p70 gene relative expression, 0.10 μM, 4 h, vs DMSO): 0.74
- fold induction at 0.01 µM (human PBMC cells; read-out: IL-13 gene relative expression, 0.01 μM, 4 h, vs DMSO): 0.37
- fold induction at 0.01 µM (human PBMC cells; read-out: IL-18 gene relative expression, 0.01 μM, 4 h, vs DMSO): 0.63
- fold induction at 0.1 µM (human PBMC cells; read-out: IL-18 gene relative expression, 0.10 μM, 4 h, vs DMSO): 0.05
- fold induction at 0.01 µM (human PBMC cells; read-out: ISG15 gene relative expression, 0.01 μM, 4 h, vs DMSO): 0.94
- fold induction at 0.03 µM (human PBMC cells; read-out: ISG15 gene relative expression, 0.03 μM, 4 h, vs DMSO): 0.97
- fold induction at 0.1 µM (human PBMC cells; read-out: ISG15 gene relative expression, 0.10 μM, 4 h, vs DMSO): 1.57
- fold induction at 0.01 µM (human PBMC cells; read-out: MIP1a (CCL3) gene relative expression, 0.01 μM, 4 h, vs DMSO): 1.29
- fold induction at 0.03 µM (human PBMC cells; read-out: MIP1a (CCL3) gene relative expression, 0.03 μM, 4 h, vs DMSO): 1.67
- fold induction at 0.01 µM (human PBMC cells; read-out: MX1 gene relative expression, 0.01 μM, 4 h, vs DMSO): 0.77
- fold induction at 0.03 µM (human PBMC cells; read-out: MX1 gene relative expression, 0.03 μM, 4 h, vs DMSO): 0.65
- fold induction at 0.1 µM (human PBMC cells; read-out: MX1 gene relative expression, 0.10 μM, 4 h, vs DMSO): 1.06
- fold induction at 0.01 µM (human PBMC cells; read-out: OAS1 gene relative expression, 0.01 μM, 4 h, vs DMSO): 0.85
- fold induction at 0.03 µM (human PBMC cells; read-out: OAS1 gene relative expression, 0.03 μM, 4 h, vs DMSO): 0.55
- fold induction at 0.1 µM (human PBMC cells; read-out: OAS1 gene relative expression, 0.10 μM, 4 h, vs DMSO): 0.71
- fold induction at 0.01 µM (human PBMC cells; read-out: TNF-α gene relative expression, 0.01 μM, 4 h, vs DMSO): 1.34
- fold induction at 0.1 µM (human PBMC cells; read-out: TNF-α gene relative expression, 0.10 μM, 4 h, vs DMSO): 6.52

Molecule: TNF-α [reference compound]
- activation of NFκB luciferase reporter gene expression above DMSO control (NFκB; 10 ng/mL): ~10 fold

From patent publication US20260364168A1, “USE OF PROTEIN KINASE C (PKC) ACTIVATING COMPOUNDS AS AN ADJUVANT” (priority 2022, published 2026)
